Assay results taken from patent publication US9133115B2 (ACHILLION PHARMACEUTICALS, INC., priority 2008, dated 2015).

These compounds were tested on HCV replicon (assay: HCV replicon replication assay (NPT ELISA) in Huh-7 replicon-containing cells). Settings: Hepatitis C virus, 72 h; HCV replicon in Huh-7 cells, three days incubation; read-out: EC50.
Format: cell-based
Method: Compounds claimed herein are tested for the ability to inhibit viral replication of the Hepatitis C replicon in cultured cells in which the HCV replicon construct has been incorporated. The HCV replicon system was described by Bartenschlager, et. al (Science, 285, pp. 110-113 (1999)). The replicon system is predictive of in vivo anti-HCV activity; compounds that are active in humans uniformly evidence activity in the replicon assay.
In this assay HCV replicon containing cells are treated with different concentrations of the test compound to ascertain the ability of the test compound to suppress replication of the HCV replicon. As a positive control, HCV replicon-containing cells are treated with different concentrations of interferon alpha, a known inhibitor of HCV replication. The replicon assay system includes Neomycin Phosphotransferase (NPT) as a component of the replicon itself in order to detect the transcription of replicon gene products in the host cell. Cells in which the HCV replicon is actively replicating have high levels of NPT; the level of NPT is proportional to HCV replication. […] The NPT level of each sample is measured using a captured ELISA.
A protocol for testing compounds for the ability to inhibit viral replication of the Hepatitis C replicon cultured cells in which the replicon construct has been incorporated, follows.
The HCV replicon contains, 5′-3′, the HCV-IRES, the neomycin phosphotransferase (neo) gene, the IRES of encephalomyocarditis virus, which directs translation of HCV sequences NS3 to NS5B, and the 3′-NTR. The sequence of the HCV replicon has been deposited in GenBank (Accession no. AJ242652).
The replicon is transfected into Huh-7 cells using standard methods such as electroporation.
The equipment and materials include, but are not limited to, Huh-7 HCV replicon-containing cells, maintenance media (DMEM (Dulbecco's modified Eagle media) supplemented with 10% FBS, L-glutamine, non-essential amino acids, penicillin (100 units/ml), streptomycin (100 micrograms/ml), and 500 micrograms/ml of Geneticin (G418), screening media (DMEM supplemented with 10% FBS, L-glutamine, non-essential amino acids, penicillin (100 units/ml) and streptomycin (100 micrograms/ml)), 96 well tissue culture plates (flat bottom), 96 well plates (U bottom for drug dilution), Interferon alpha for positive control, fixation reagent (such as methanol: acetone), primary antibody (rabbit anti-NPTII), secondary antibody: Eu-N1 l, and enhancement solution.
HCV replicon-containing cells support high levels of viral RNA replicon replication when their density is suitable. Over-confluency causes decreased viral RNA replication. Therefore, cells must be kept growing in log phase in the presence of 500 micrograms/ml of G418. Generally, cells should be passed twice a week at 1: 4-6 dilution. Cell maintenance is conducted as follows:
HCV replicon-containing cells are examined under a microscope to ensure that cells growing well. Cells are rinsed once with PBS and 2 ml trypsin is added. The cell/trypsin mixture is incubated at 37° C. in a CO2 incubator for 3-5 minutes. After incubation 10 ml of complete media is added to stop the trypsinization reaction. Cells are blown gently, put into a 15 ml tube, and spun at 1200 rpm for 4 minutes. The trypsin/medium solution is removed. Medium (5 ml) is added and the cells are mixed carefully. The cells are counted.
The cells are then seeded onto 96-well plates at a density of 6000-7500 cells/100 microliters/well (6-7.5×10^5 cells/10 ml/plate). The plates are then incubated at 37° C. in a 5% CO2 incubator.
Cells are examined under a microscope approximated 24 hours after seeding and prior to adding drugs. If counting and dilution were performed correctly, cells are 60-70% confluent and nearly all cells should attach and spread evenly in the well.
HCV replicon-containing cells are rinsed with once PBS once; 2 mls of trypsin are then added. Cells are incubated at 37° C. in a 5% CO2 incubator for 3-5 minutes. […]
With `C=C[C@@H]1C[C@]1(NC(=O)[C@@H]1C[C@@H](Oc2cc(-c3ccccn3)c3ccc(OC)c(Cl)c3n2)CN1C(=O)[C@@H](CC(=O)N1CCCCC1)C(C)(C)C)C(=O)NS(=O)(=O)C1CC1` [Compound 148, (2S,4R)-1-((S)-2-tert-butyl-4-oxo-4-(piperidin-1-yl)butanoyl)-4-(8-chloro-7-methoxy-4-(pyridin-2-yl)quinolin-2-yloxy)-N-((1R,2S)-1-(cyclopropyl-sulfonylcarbamoyl)-2-vinyl-cyclopropyl)pyr-rolidine-2-carboxamide] the EC50 was 1 to 10 µM.
`C=C[C@@H]1C[C@]1(NC(=O)[C@@H]1C[C@@H](Oc2cc(-c3ccccc3)nc3cc(OC)ccc23)CN1C(=O)[C@@H](CC(=O)N1CCCCC1)C(C)(C)C)C(=O)NS(=O)(=O)C1(CCC)CC1` [Compound 146, (2S,4R)-1-((S)-2-tert-butyl-4-oxo-4-(piperidin-1-yl)butanoyl)-4-(7-methoxy-2-phenylquinolin-4-yloxy)-N-((1R,2S)-1-(1-propylcyclo-propylsulfonyl-carbamoyl)-2-vinyl-cyclopropyl)pyr-rolidine-2-carboxamide] gave an EC50 of less than 1 µM.
For `C=C[C@@H]1C[C@]1(NC(=O)[C@@H]1C[C@@H](Oc2cc(-c3ccccc3)nc3cc(OC)ccc23)CN1C(=O)[C@@H](CC(=O)N1CCCC(=O)C1)C(C)(C)C)C(=O)NS(=O)(=O)C1CC1` [Compound 141, (2S,4R)-1-((S)-2-tert-butyl-4-oxo-4-(3-oxopiperidin-1-yl)butanoyl)-N-((1R,2S)-1-(cyclo-propylsulfonyl-carbamoyl)-2-vinylcyclopropyl)-4-(7-methoxy-2-phenylquinolin-4-yloxy)pyrrolidine-2-carboxamide], the EC50 was less than 1 µM.
For `C=C[C@H]1C[C@]1(NC(=O)[C@@H]1C[C@@H](Oc2cc(-c3ccccc3)nc3cc(OC)ccc23)CN1C(=O)[C@H](CC(=O)N1CCCCC1)CC1CCCCC1)C(=O)NS(=O)(=O)C1CC1` [Compound 60, (2S,4R)-1-((S)-2-(cyclohexylmethyl)-4-oxo-4-(piperidin-1-yl)butanoyl)-N-((1R,2R)-1-(cyclopropyl-sulfonylcarbamoyl)-2-vinylcyclopropyl)-4-(7-methoxy-2-phenylquinolin-4-yloxy)pyrrolidine-2-carboxamide], the EC50 was 1 to 10 µM.
`C=CC1CC1(NC(=O)[C@@H]1C[C@@H](Oc2cc(-c3ccccc3)nc3cc(OC)ccc23)CN1C(=O)[C@@H](CC(=O)N1CCCc2ccccc21)C(C)(C)C)C(=O)NS(=O)(=O)C1CC1` (stereo partly drawn) [Compound 41, (2S,4R)-1-((S)-2-tert-butyl-4-(3,4-dihydroquinolin-1(2H)-yl)-4-oxobutanoyl)-N-(1-(cyclopropyl-sulfonyl-carbamoyl)-2-vinylcyclopropyl)-4-(7-methoxy-2-phenylquinolin-4-yloxy)pyrrolidine-2-carboxamide] was tested, and the EC50 was less than 1 µM.
With `C=C[C@@H]1C[C@]1(NC(=O)[C@@H]1C[C@@H](OC(=O)N2c3ccccc3Oc3ccccc32)CN1C(=O)[C@@H](CC(=O)N1CCCCC1)C(C)(C)C)C(=O)NS(=O)(=O)C1CC1` [Compound 154, (3R,5S)-1-((S)-2-tert-butyl-4-oxo-4-(piperidin-1-yl)butanoyl)-5-((1R,2S)-1-(cyclo-propylsulfonyl-carbamoyl)-2-vinyl-cyclopropyl-carbamoyl)pyrrolidin-3-yl 10H-phenoxazine-10-carboxylate] the EC50 was 1 to 10 µM.
Compound `C=C[C@@H]1C[C@]1(NC(=O)[C@@H]1C[C@@H](NC(=O)n2c3ccccc3c3ccccc32)CN1C(=O)[C@@H](CC(=O)N1CCCCC1)C(C)(C)C)C(=O)NS(=O)(=O)C1CC1` [Compound 177, N-((3R,5S)-1-((S)-2-tert-butyl-4-oxo-4-(piperidin-1-yl)butanoyl)-5-((1R,2S)-1-(cyclopropyl-sulfonylcarbamoyl)-2-vinylcyclopropyl-carbamoyl)pyr-rolidin-3-yl)-9H-carbazole-9-carboxamide] has an EC50 of less than 1 µM.
`C=C[C@@H]1C[C@]1(NC(=O)[C@@H]1C[C@@H](Oc2cc(-c3ccccc3)nc3cc(OC)ccc23)CN1C(=O)[C@@H](CC(=O)NC1CCCC1)C(C)(C)C)C(=O)NS(=O)(=O)C1CC1` [Compound 49, (2S,4R)-1-((S)-2-tert-butyl-4-(cyclopentylamino)-4-oxobutanoyl)-N-((1R,2S)-1-(cyclopropyl-sulfonylcarbamoyl)-2-vinylcyclopropyl)-4-(7-methoxy-2-phenylquinolin-4-yloxy)pyrrolidine-2-carboxamide] showed an EC50 of less than 1 µM.
`C=CC1CC1(NC(=O)[C@@H]1C[C@@H](Oc2cc(-c3ccccc3)nc3cc(OC)ccc23)CN1C(=O)C[C@H](C(=O)N1C(=O)OC[C@@H]1Cc1ccccc1)C(C)(C)C)C(=O)NS(=O)(=O)C1CC1` (stereo partly drawn) [Compound 47, (2S,4R)-1-((S)-3-((S)-4-benzyl-2-oxooxazolidine-3-carbonyl)-4,4-dimethyl-pentanoyl)-N-(1-(cyclopropyl-sulfonylcarbamoyl)-2-vinylcyclopropyl)-4-(7-methoxy-2-phenylquinolin-4-yloxy)pyrrolidine-2-carboxamide] was tested, and the EC50 was 1 to 10 µM.
For `C=C[C@@H]1C[C@]1(NC(=O)[C@@H]1C[C@@H](Oc2nc(-c3ccccn3)nc3ccsc23)CN1C(=O)[C@@H](CC(=O)N1CCCCC1)C(C)(C)C)C(=O)NS(=O)(=O)C1CC1` [Compound 122, (2S,4R)-1-((S)-2-tert-butyl-4-oxo-4-(piperidin-1-yl)butanoyl)-N-((1R,2S)-1-(cyclopropylsulfonyl-carbamoyl)-2-vinylcyclopropyl)-4-(2-(pyridin-2-yl)thieno[3,2-d]pyrimidin-4-yloxy)pyrrolidine-2-carboxamide], the EC50 was 1 to 10 µM.
`C=C[C@@H]1C[C@]1(NC(=O)[C@@H]1C[C@@H](Oc2cc(-c3ccccc3)nc3cc(OC)ccc23)CN1C(=O)[C@@H](CC(=O)N1CC[C@@H](NC(=O)OC(C)(C)C)C1)C(C)(C)C)C(=O)NS(=O)(=O)C1CC1` [Compound 184, tert-butyl (R)-1-((S)-3-((2S,4R)-2-((1R,2S)-1-(cyclo-propylsulfonyl-carbamoyl)-2-vinyl-cyclopropyl-carbamoyl)-4-(7-methoxy-2-phenylquinolin-4-yloxy)pyrrolidine-1-carbonyl)-4,4-dime-thylpentanoyl)pyr-rolidin-3-ylcarbamate] showed an EC50 of less than 1 µM.
`C=C[C@@H]1C[C@]1(NC(=O)[C@@H]1C[C@@H](Oc2cc(-c3ccccc3)nc3cc(OC)ccc23)CN1C(=O)[C@@H](CC(=O)N1CCCCC1)C(C)(C)C)C(=O)NS(=O)(=O)c1ccccc1` [Compound 62, (2S,4R)-1-((S)-2-tert-butyl-4-oxo-4-(piperidin-1-yl)butanoyl)-4-(7-methoxy-2-phenylquinolin-4-yloxy)-N-((1R,2S)-1-(phenylsulfonyl-carbamoyl)-2-vinyl-cyclopropyl)pyr-rolidine-2-carboxamide] gave an EC50 of less than 1 µM.
In the case of `C=C[C@@H]1C[C@]1(NC(=O)[C@@H]1C[C@@H](Oc2cc(-c3ccccc3)nc3cc(OC)ccc23)CN1C(=O)[C@@H](CC(=O)N1CC(Cl)C1)C(C)(C)C)C(=O)NS(=O)(=O)C1CC1` [Compound 224, (2S,4R)-1-((S)-2-tert-butyl-4-(3-chloroazetidin-1-yl)-4-oxobutanoyl)-N-((1R)-1-(cyclopropyl-sulfonylcarbamoyl)-2-vinylcyclopropyl)-4-(7-methoxy-2-phenylquinolin-4-yloxy)pyrrolidine-2-carboxamide], the EC50 is reported as less than 1 µM.
With `C=C[C@@H]1C[C@]1(NC(=O)[C@@H]1C[C@@H](N(Cc2ccccn2)C(=O)n2c3ccccc3c3ccccc32)CN1C(=O)[C@@H](CC(=O)N1CCCC(F)(F)C1)C(C)(C)C)C(=O)NS(=O)(=O)C1CC1` [Compound 192, N-((3R,5S)-1-((S)-2-tert-butyl-4-(3,3-difluoropiperidin-1-yl)-4-oxobutanoyl)-5-((1R)-1-(cyclopropylsulfonyl-carbamoyl)-2-vinylcyclopropyl-carbamoyl)pyrrolidin-3-yl)-N-(pyridin-2-ylmethyl)-9H-carbazole-9-carboxamide] the EC50 was less than 1 µM.
